The text below walks through data of patent publication US12162895B2, “DNA polymerase theta inhibitor for treatment of cancer” (Breakpoint Therapeutics GmbH, priority 2023, dated 2024).

Where only a bound is given, the exact number is not on record here.

As a reminder, the IC50 is the point on the concentration scale where inhibition reaches its midpoint. A high value points to weaker potency.

This assay has as its target T1, Polθ (Homo sapiens, UniProt O75417).
T1 construct: a truncated Pole protein (Pole-Hel containing the helicase domain (67-894))
Put plainly: Polθ ATPase assay (Biological Assay 1, ADP-Glo luminescence). To be noted: truncated Polθ protein containing the helicase domain (67-894), ssDNA oligo, ATP, in vitro. Format: biochemical. The procedure:
The Pole ATPase assay was used to evaluate inhibitors of Pole ATPase activity, in vitro. Experiments were performed using a truncated Pole protein (Pole-Hel containing the helicase domain (67-894), ATP and a DNA single strand Oligo (5′-CTGTCCTGCATGATG-3′) in the Pole assay buffer (20 mM Tris-HCl (pH 8.8), MgCl2 5 mM, tween20 0.01%, NP40 0.01%, BSA 0.01%, DTT 1 mM). 2 μL of assay buffer containing Pole-Hel protein (0.5 nM) and DNA substrate (500 nM) was transferred into assay ready plates, containing 0.04 μL of compounds diluted in DMSO. After a 30 minutes incubation at 23° C. in the dark, the reaction was triggered by adding 2 μL of ATP (60 μM), in assay buffer. After 60 minutes at 23° C., 4 μl of ADP-Glo™ Reagent (Glo 1) was added followed by 40 minutes of incubation, then 8 μl of ADP-Glo™ kinase Detection Reagent (Glo 2) followed by 60 minutes of incubation at 23° C. Luminescence was then measured using Tecan F200 infinite plate reader. Raw data were analysed using GeneData to generate IC50 values.
The Pole ATPase assay described in Biological Assay 1 above was used to evaluate inhibitors of Pole ATPase activity for the compounds described in the Experimental Part B above, in vitro.
In general terms: In ADP-Glo the light output rises with the ADP produced.

T1 sequence (O75417 67-894): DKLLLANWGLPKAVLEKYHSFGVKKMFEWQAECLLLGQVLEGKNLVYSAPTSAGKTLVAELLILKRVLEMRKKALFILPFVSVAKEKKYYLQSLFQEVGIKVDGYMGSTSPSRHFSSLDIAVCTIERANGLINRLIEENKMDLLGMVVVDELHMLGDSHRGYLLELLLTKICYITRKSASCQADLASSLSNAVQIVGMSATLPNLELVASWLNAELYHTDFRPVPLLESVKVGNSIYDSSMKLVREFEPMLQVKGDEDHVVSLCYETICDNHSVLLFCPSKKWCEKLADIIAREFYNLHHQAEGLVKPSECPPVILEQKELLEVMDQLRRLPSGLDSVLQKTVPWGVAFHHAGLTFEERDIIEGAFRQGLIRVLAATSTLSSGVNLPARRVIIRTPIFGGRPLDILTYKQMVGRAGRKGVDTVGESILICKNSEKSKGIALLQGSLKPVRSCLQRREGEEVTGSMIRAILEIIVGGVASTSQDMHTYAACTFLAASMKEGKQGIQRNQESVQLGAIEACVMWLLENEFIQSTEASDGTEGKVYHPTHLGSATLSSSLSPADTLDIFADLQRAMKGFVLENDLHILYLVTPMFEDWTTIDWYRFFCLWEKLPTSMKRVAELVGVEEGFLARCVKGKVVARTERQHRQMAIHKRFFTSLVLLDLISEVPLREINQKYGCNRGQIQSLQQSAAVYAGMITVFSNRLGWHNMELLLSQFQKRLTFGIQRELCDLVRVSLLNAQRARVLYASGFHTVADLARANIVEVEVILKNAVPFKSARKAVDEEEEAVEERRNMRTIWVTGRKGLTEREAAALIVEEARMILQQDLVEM

In turn, “5′-methoxy-2′,6-dimethyl-N-[5-(morpholin-4-yl)-[1,3]thiazolo[5,4-d]pyrimidin-2-yl]-[4,4′-bipyridine]-3-carboxamide [Example 92]” gave a half-inhibitory concentration (IC50) of less than 0.1 µM.
